Experimental findings from US11034661B2, “Substituted N′-hydroxycarbamimidoyl-1,2,5-oxadiazole compounds as indoleamine 2,3-dioxygenase IDO inhibitors” (Merck Sharp & Dohme Corp., priority 2017, dated 2021) are described below.

The structures appear in SMILES notation.

Test [1] has as its target IDO1 in Hela cells stimulated with IFNγ (Homo sapiens (Human), UniProt P14902). The experiment in a line: IDO1 Cellular Assay in Hela Cells Stimulated with IFNγ. It counts as cell-based. The note with it: IFNγ 100 ng/mL, about 48 hours, fluorescence readout, read-out: IDO1 HELA Cell Assay, IC50. The essentials: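 IFNγ-stimulated (100 ng/mL) HeLa cells with 300 uM L-tryptophan were incubated with 10-point 3-fold compound dilutions for about 48 h at 37 °C. Kynurenine product was derivatized with methyl isonipecotate overnight and read by fluorescence (ex 400/em 510 nm). Signal was background-corrected using non-IFNγ cells and normalized to DMSO, and IC50 came from a four-parameter logistic fit.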

The target in another test is HIS-tagged IDO1 protein (Homo sapiens (Human), UniProt P14902). Kind of test: IDO1 Enzyme Assay. The note with it: recombinant IDO1 40 nM, tryptophan substrate, fluorescence readout. It counts as biochemical. The essentials:
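Recombinant E. coli-expressed HIS-IDO1 (40 nM final) in 50 mM Tris pH 7.0 with methylene blue, ascorbate and catalase, preincubated with compound 30 min at RT, then tryptophan added and reacted 60 min at RT. Quenched with methyl isonipecotate, heated, fluorescence read (ex 400/em 510 nm); IC50 from four-parameter logistic fit.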

Test [2] has as its target IDO1 in human whole blood stimulated with LPS and IFNγ (Homo sapiens (Human), UniProt P14902). The experiment in a line: IDO1 Human Whole Blood Assay. It counts as cell-based. The note with it: LPS and IFNγ 100 ng/mL, 18 h, kynurenine by LC/MS/MS. As to the method: IDO1 Human Whole Blood Assay
Compounds to be tested were serially diluted in ten 3-fold steps in DMSO starting from 10 mM. 3 μL of compound dilutions or DMSO alone were then dispensed from the dilution plate into a polypropylene 96-well assay plate containing 97 μL of RPMI using an Echo 555 acoustic liquid handler (Labcyte). LPS and IFNγ was prepared in RPMI to a 10× of final conc. (1000 ng/mL), final concentration is 100 ng/mL.
Human whole blood was drawn in sodium heparin coated tubes from healthy internal donors. Two hundred forty μL of blood was transferred to each of the wells of a v-bottom 96 well plate. Thirty μL of compound was transferred from intermediate dilution plate, and incubated for 15 min. Thirty μL from stimulants was then transferred to blood and mixed thoroughly. Plate was covered with breathable membrane and incubated at 37° C. for overnight (18 h).
On day 2 isotope labeled standard of kynurenine and tryptophan was made in water at 10× concentration and 30 μL was added to the blood at 3 μM final concentration. The assay plates were centrifuged at 300×G for 10 min with no brake to separate plasma from red blood cells. Sixty μL of plasma samples was removed without disturbing red blood cells. Plasma was diluted with RPMI in 1:1 ratio and proteins were precipitated out with two volume of Acetonitrile. The plates was centrifuged at 4000×G for 60 min. Twenty μL of supernatant was carefully transferred to a 384 well plate contain 40 μL of 0.1% formic acid in water and analyzed by LC/MS/MS.
LC/MS/MS analyses were performed using Thermo Fisher's LX4-TSQ Quantum Ultra system. This system consists of four Agilent binary high-performance liquid chromatography (HPLC) pumps and a TSQ Quantum Ultra triple quadruple MS/MS instrument. For each sample, 5 μL were injected onto an Atlantis T3 column (2.1 mm×150 mm, 3 μm particle size) from Waters. The mobile phase gradient pumped at 0.8 mL/min was used to elute the analytes from the column at 25° C. The elution started at 0% B increasing linearly to 25% B at 6.5 min, holding at 25% for 1 min, re-equilibrating to 10 min. Mobile phase A consisted of 0.1% formic acid in water. Mobile phase B consisted of 0.1% of formic acid in acetonitrile. Data was acquired in positive mode using a HESI interface. The operational parameters for the TSQ Quantum Ultra instrument were a spray voltage of 4000 V, capillary temperature of 380° C., vaporizer temperature 400° C., shealth gas 60 arbitrary units, Aux gas 20 arbitrary units, tube lens 85 and collision gas 1.2 mTorr. SRM chromatograms of kynurenine (Q 1: 209.2>Q3:94.0) and internal standard (Q1: 215.3>Q3:98.2) were collected for 90 sec. The peak area was integrated by Xcalibur Quan software. The ratios between the kynurenine generated in the reaction and 2D6-Kynurenine spiked-in internal standard were used to generate percentage inhibition and IC50 values. Compounds were titrated and IC50's were calculated by 4 parameter sigmoidal curve fitting formula.

Chain of IDO1 in human whole blood stimulated with LPS and IFNγ (P14902 whole entry): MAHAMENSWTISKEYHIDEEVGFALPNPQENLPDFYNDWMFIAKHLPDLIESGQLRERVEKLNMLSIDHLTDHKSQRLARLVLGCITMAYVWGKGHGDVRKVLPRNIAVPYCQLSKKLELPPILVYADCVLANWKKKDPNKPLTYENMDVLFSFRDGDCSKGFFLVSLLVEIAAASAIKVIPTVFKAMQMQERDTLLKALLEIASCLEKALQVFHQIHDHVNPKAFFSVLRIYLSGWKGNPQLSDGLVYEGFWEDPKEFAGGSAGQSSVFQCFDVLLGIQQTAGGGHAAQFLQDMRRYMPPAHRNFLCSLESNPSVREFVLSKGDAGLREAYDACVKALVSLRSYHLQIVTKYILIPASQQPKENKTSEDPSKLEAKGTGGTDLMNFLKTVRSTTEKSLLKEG
Chain of HIS-tagged IDO1 protein (P14902 whole entry): as above
Chain of IDO1 in Hela cells stimulated with IFNγ (P14902 whole entry): as above

What is called IC50 is the point on the concentration scale where inhibition reaches its midpoint. As to `O=C(CO)N[C@H]1C[C@@H](Oc2nonc2/C(=N/O)N[C@H]2Cc3ccc(F)cc32)C1` [Example 38, N-{cis-3-[(4-{N-[(7S)-4-fluorobicyclo[4.2.0]octa-1,3,5-trien-7-yl]-N′-hydroxycarbamimidoyl}-1,2,5-oxadiazol-3-yl)oxy]cyclobutyl}-2-hydroxyacetamide], the IC50 in test [1] was determined as 74.9 nM; at HIS-tagged IDO1 protein it was 67.8 nM. Further, in test [2], the “IDO1 human whole blood assay, IC50” value is given as 518.6 nM.

For the compound `NS(=O)(=O)NCCOc1nonc1/C(=N/O)N[C@H]1Cc2ccc(F)cc21` [Example 1, (S)—N-(4-fluorobicyclo[4.2.0]octa-1(6),2,4-trien-7-yl)-N′-hydroxy-4-(2-(sulfamoylamino)ethoxy)-1,2,5-oxadiazole-3-carboximidamide], the figures for the IC50 (in test [1]; at HIS-tagged IDO1 protein) were 106 nM and 49.3 nM, respectively. In test [2], the “IDO1 human whole blood assay, IC50” value stood at 666.4 nM.

Regarding `C[C@@H](CO)NC(=O)COc1nonc1/C(=N/O)N[C@H]1Cc2ccc(F)cc21` [Example 7, 2-[(4-{N-[(7S)-4-fluorobicyclo[4.2.0]octa-1,3,5-trien-7-yl]-N′-hydroxycarbamimidoyl}-1,2,5-oxadiazol-3-yl)oxy]-N-[(2S)-1-hydroxypropan-2-yl]acetamide], the IC50 worked out at 88.6 nM in test [1] and 72 nM at HIS-tagged IDO1 protein. The “IDO1 human whole blood assay, IC50” value in test [2] is 1176 nM.

Turning to `O=C(CO)N[C@H]1C[C@H](Oc2nonc2/C(=N/O)N[C@H]2Cc3ccc(F)cc32)C1` [Example 56, N-{trans-3-[(4-{N-[(7S)-4-fluorobicyclo[4.2.0]octa-1,3,5-trien-7-yl]-N′-hydroxycarbamimidoyl}-1,2,5-oxadiazol-3-yl)oxy]cyclobutyl}-2-hydroxyacetamide], the IC50 in test [1] came out at 1340 nM; at HIS-tagged IDO1 protein, 1490 nM. In addition, the “IDO1 human whole blood assay, IC50” value in test [2] turned out to be 386.1 nM.

On to `CS(=O)(=O)NCCOc1nonc1/C(=N/O)N[C@H]1Cc2ccc(F)cc21` [Example 6, N-[(7S)-4-fluorobicyclo[4.2.0]octa-1,3,5-trien-7-yl]-N′-hydroxy-4-{2-[(methylsulfonyl)amino]ethoxy}-1,2,5-oxadiazole-3-carboximidamide], for which the IC50 in test [1] turned out to be 58.3 nM; at HIS-tagged IDO1 protein it was 48.3 nM. Moreover, in test [2], the “IDO1 human whole blood assay, IC50” value is 351.3 nM.

Take `O=C(N1CC(Oc2nonc2/C(=N/O)N[C@H]2Cc3ccc(F)cc32)C1)C1(O)CC1` [Example 47, N-[(7S)-4-fluorobicyclo[4.2.0]octa-1,3,5-trien-7-yl]-N′-hydroxy-4-{[1-(1-hydroxycyclopropane-1-carbonyl)azetidin-3-yl]oxy}-1,2,5-oxadiazole-3-carboximidamide]: the IC50 was found to be 49.9 nM in test [1] and 56.6 nM on HIS-tagged IDO1 protein. Also, the “IDO1 human whole blood assay, IC50” value in test [2] is 500.6 nM.

Regarding `NC(=O)N[C@H]1C[C@@H](Oc2nonc2/C(=N/O)N[C@H]2Cc3ccc(F)cc32)C1` [Example 42, 4-{[cis-3-(carbamoylamino)cyclobutyl]oxy}-N-[(7S)-4-fluorobicyclo[4.2.0]octa-1,3,5-trien-7-yl]-N′-hydroxy-1,2,5-oxadiazole-3-carboximidamide], the values for the IC50 (in test [1]; on HIS-tagged IDO1 protein) were 40 nM and 49 nM, respectively. Also, the “IDO1 human whole blood assay, IC50” value in test [2] amounted to 387.6 nM.

Take `NC(=O)N[C@H]1C[C@H](Oc2nonc2/C(=N/O)N[C@H]2Cc3ccc(F)cc32)C1` [Example 57, 4-{[trans-3-(carbamoylamino)cyclobutyl]oxy}-N-[(7S)-4-fluorobicyclo[4.2.0]octa-1,3,5-trien-7-yl]-N′-hydroxy-1,2,5-oxadiazole-3-carboximidamide]: the IC50 in test [1] stood at 328 nM; at HIS-tagged IDO1 protein, 216 nM. The “IDO1 human whole blood assay, IC50” value in test [2] was 954.9 nM.

For `C[C@H](O)C(=O)N1CC(Oc2nonc2/C(=N/O)N[C@H]2Cc3ccc(F)cc32)C1` [Example 48, N-[(7S)-4-fluorobicyclo[4.2.0]octa-1,3,5-trien-7-yl]-N′-hydroxy-4-({1-[(2S)-2-hydroxypropanoyl]azetidin-3-yl}oxy)-1,2,5-oxadiazole-3-carboximidamide], the IC50 in test [1] was 88.4 nM; on HIS-tagged IDO1 protein, 102 nM. In addition, the “IDO1 human whole blood assay, IC50” value in test [2] came out at 400.3 nM.

For the compound `O=C(CO)NCCOc1nonc1/C(=N/O)N[C@H]1Cc2ccc(F)cc21` [Example 5, N-{2-[(4-{N-[(7S)-4-fluorobicyclo[4.2.0]octa-1,3,5-trien-7-yl]-N′-hydroxycarbamimidoyl}-1,2,5-oxadiazol-3-yl)oxy]ethyl}-2-hydroxyacetamide], the IC50 in test [1] was determined as 322 nM; on HIS-tagged IDO1 protein, 114 nM. Besides, the “IDO1 human whole blood assay, IC50” value in test [2] is 714.9 nM.

As for `CC(=O)NCCOc1nonc1/C(=N/O)N[C@H]1Cc2ccc(F)cc21` [Example 3, (S)—N-(2-((4-(N-(4-fluorobicyclo[4.2.0]octa-1(6),2,4-trien-7-yl)-N′-hydroxycarbamimidoyl)-1,2,5-oxadiazol-3-yl)oxy)ethyl)acetamide], the IC50 in test [1] worked out at 51.4 nM; on HIS-tagged IDO1 protein, 58.5 nM. In test [2], the “IDO1 human whole blood assay, IC50” value was found to be 185.4 nM.

In the case of `CCC(=O)NCCOc1nonc1/C(=N/O)N[C@H]1Cc2ccc(F)cc21` [Example 33, N-{2-[(4-{N-[(7S)-4-fluorobicyclo[4.2.0]octa-1,3,5-trien-7-yl]-N′-hydroxycarbamimidoyl}-1,2,5-oxadiazol-3-yl)oxy]ethyl}propanamide], the IC50 in test [1] is 53 nM; on HIS-tagged IDO1 protein it was 39.8 nM. Moreover, in test [2], the “IDO1 human whole blood assay, IC50” value was determined as 503.3 nM.

Take `O=C(COc1nonc1/C(=N/O)N[C@H]1Cc2ccc(F)cc21)NCCO` [Example 4, (S)-2-((4-(N-(4-fluorobicyclo[4.2.0]octa-1(6),2,4-trien-7-yl)-N′-hydroxycarbamimidoyl)-1,2,5-oxadiazol-3-yl)oxy)-N-(2-hydroxyethyl)acetamide]: the IC50 in test [1] was 324 nM; on HIS-tagged IDO1 protein, 139 nM. Moreover, in test [2], the “IDO1 human whole blood assay, IC50” value is 1414 nM.

On to `CC(=O)N[C@H]1C[C@@H](Oc2nonc2/C(=N/O)N[C@H]2Cc3ccc(F)cc32)C1` [Example 36, N-{cis-3-[(4-{N-[(7S)-4-fluorobicyclo[4.2.0]octa-1,3,5-trien-7-yl]-N′-hydroxycarbamimidoyl}-1,2,5-oxadiazol-3-yl)oxy]cyclobutyl}acetamide], for which the IC50 is 42.1 nM in test [1] and 50.7 nM at HIS-tagged IDO1 protein. For the same compound, in test [2], the “IDO1 human whole blood assay, IC50” value stood at 314.2 nM.

For `NS(=O)(=O)N[C@H]1C[C@@H](Oc2nonc2/C(=N/O)N[C@H]2Cc3ccc(F)cc32)C1` [Example 43, N-[(7S)-4-fluorobicyclo[4.2.0]octa-1,3,5-trien-7-yl]-N′-hydroxy-4-{[cis-3-(sulfamoylamino)cyclobutyl]oxy}-1,2,5-oxadiazole-3-carboximidamide], the figures for the IC50 (in test [1]; on HIS-tagged IDO1 protein) were 45.4 nM and 36.6 nM, respectively. In test [2], the “IDO1 human whole blood assay, IC50” value turned out to be 1440 nM.

Turning to `COC(=O)NCCOc1nonc1/C(=N/O)N[C@H]1Cc2ccc(F)cc21` [Example 41, methyl {2-[(4-{N-[(7S)-4-fluorobicyclo[4.2.0]octa-1,3,5-trien-7-yl]-N′-hydroxycarbamimidoyl}-1,2,5-oxadiazol-3-yl)oxy]ethyl}carbamate], the IC50 in test [1] worked out at 181 nM; at HIS-tagged IDO1 protein, 141 nM.

With `NS(=O)(=O)CCOc1nonc1/C(=N/O)N[C@H]1Cc2ccc(F)cc21` [Example 34, N-[(7S)-4-fluorobicyclo[4.2.0]octa-1,3,5-trien-7-yl]-N′-hydroxy-4-(2-sulfamoylethoxy)-1,2,5-oxadiazole-3-carboximidamide], the IC50 in test [1] worked out at 870 nM; on HIS-tagged IDO1 protein, 289 nM.
